# In publication PMC5392048 (Journal of Central Nervous System Disease, 2017):
# How the values were obtained:
# P-gp = conditions: read-out: inhibitory concentration (Ki) for P-gp; cited from earlier work
# [1] = Unbound plasma concentration-time profile of the inhibitors in rats; format: in vivo, rat
# OATP1B1 = conditions: read-out: Ki for the uptake transporters (OATP1B1); cited from earlier work
smiles,measurement,setting,value
COc1cc2c(cc1OC)CN(CCc1ccc(NC(=O)c3cccc4c(=O)c5cccc(OC)c5[nH]c34)cc1)CC2 [elacridar],Ki,P-gp,[…]
same,time unbound plasma level maintained above Ki (Iu/Ki > 1),"[1]; elacridar 5 mg/kg iv, rat plasma, Ki for P-gp",~ 15 hours
CO[C@H]1/C=C/O[C@@]2(C)Oc3c(C)c(O)c4c(O)c(c(/C=N/N5CCN(C)CC5)c(O)c4c3C2=O)NC(=O)/C(C)=C\C=C\[C@H](C)[C@H](O)[C@@H](C)[C@@H](O)[C@@H](C)[C@H](OC(C)=O)[C@@H]1C [rifampicin],Ki,OATP1B1,1100 nM
same,maximum unbound concentration in plasma,"[1]; rifampicin 30 mg/kg oral, rat",1.8 µM
